A short description of series [1]: Human plasma stability. Format: in vitro ADME. The following applies: 37° C., 4 h, radio-UPLC. As to the method:
(§1) Radio-UPLC: For stability studies, an ultra-performance liquid chromatography (UPLC™, Waters) system, equipped with an Acquity UPLC BEH C18 column (1.7 μm, 2.1×50 mm, Waters) and a coincidence detector (FlowStar LB513, Berthold) was used with following solvent system: eluent A was a NaH2PO4/Na2HPO4 buffer (0.05 M, pH 7.4) and eluent B was acetonitrile. A gradient from 0-4.0 min 100%-40% A, at a flow rate of 0.6 ml/min was used.
The radiotracer was tested with regard to its stability in human blood plasma over a period of 4 hours at 37° C. The formulated product (200 μL) was diluted with sodium phosphate buffer (100 μl) and an aliquot (60 μl, 15 MBq) was added to human plasma (500 μL), pre-incubated at 37° C. The mixture was shaken on a Thermomixer compact (Eppendorf) at 37° C. and 500 rpm. After several time points (0, 30, 60, 120, 150 and 240 min) aliquots were taken after tracer addition. Each aliquot (70 μl) was added to ice-cold MeOH (150 μl) to precipitate the proteins. To separate the supernatant from the precipitate, the suspension was centrifuged for 10 min at 13400 rpm (Eppendorf MiniSpin) at room temperature. The supernatant was passed through a microfilter (Sartorius Stedim Biotech GmbH, Minisart RC 25, 0.45 μm) and was analyzed on the radio-UPLC system.

Series [2] is described as follows: Stability experiments using liver microsomes (mouse). Format: in vitro ADME. Particulars: 37° C., 1 h, NADPH regenerating system, radio-UPLC.
Excerpt: General: Reagents and solvents were purchased from Sigma-Aldrich Chemie GmbH, Acros Organics or VWR International AG if nothing else is mentioned. All chemicals were used as supplied. Human and mouse (female CD-1) microsomes and the NADPH regenerating systems were purchased from BD biosciences.
as §1
To a mixture of KH2PO4/K2HPO4 buffer (pH 7.4, 0.5 M, 200 μl), NADPH regenerating system A (50 μl), NADPH regenerating system B (10 μl), an aliquot of [^18F]-3′-aza-2′-fluorofolic acid (38 μl, approx. 15 MBq) was added and filled up with water (677 μl) to a volume of 975 μl and preincubated at 37° C. Then, mouse or human liver microsomes (20 mg/ml, 25 μl) were added and incubated at 37° C. After several time points (0, 20, 40 and 60 min) aliquots (100 μl) were drawn and the enzymatical reaction was stopped by purring the solution into ice-cold methanol (200 μl). […] Every time point was performed as a triplicate and analyzed on a radio-UPLC system. […]
On the technique in general: Microsomes from liver hold many membrane-bound enzymes, among them those of drug oxidation.

The nature of series [3]: Stability experiments using glutathione / S9-fraction. Format: in vitro ADME, human. The following applies: 37° C., 1 h, radio-UPLC. On the procedure: as §1
Glutathione (0.1 M, 100 μl), S9-fraction (20 mg/ml, 50 μl) and KH2PO4/K2HPO4 buffer (pH 7.4, 0.5 M, 200 μl) were diluted with water (612 μl) to a volume of […] and [^18F]-3′-aza-2′-fluorofolic acid (38 μl, approx. 15 MBq) was added. The mixture was incubated at 37° C. At several time points aliquots (100 μl) were drawn and the reaction was stopped by pouring the sample into ice-cold methanol (200 μl). Each sample was diluted with NaH2PO4/Na2HPO4 buffer (pH 7.4, 0.05 M, 600 μl). Every time point was performed as duplicates and analyzed on a radio-UPLC system.

The subject of series [4] is KB cells. The series is described as follows: In vitro cell uptake and internalization studies. It is filed as cell-based, human. Particulars: two hours of incubation, 37° C. On the procedure: Cell Culture: KB cells (human cervical carcinoma cell line, HeLa subclone; ACC-136) were purchased from the German Collection of Microorganisms and Cell Cultures (DSMZ, Braunschweig, Germany). The cells were cultured as monolayers at 37° C. in a humidified atmosphere containing 5% CO2. […] FFRPMI medium was supplemented with 10% heat-inactivated fetal calf serum (FCS, as the only source of folate), L-glutamine and antibiotics (penicillin/streptomycin/fungizone). Routine culture treatment was performed twice a week with EDTA (2.5 mmol/l) in PBS.
KB cells were seeded in 12-well plates to grow over night (˜700,000 cells in 2 ml FFRPMI medium/well). [^18F]-3′-aza-2′-fluorofolic acid ([…], 170 kBq) was added to each well. […] After incubation for 1 h or 2 h at 37° C. the cells were washed three times with PBS to determine total cell uptake of 3′-aza-2′-[^18F]fluorofolic acid. […] The cell suspensions were transferred to 4 ml tubes and the samples were counted in a −counter. After homogenization by vortex, the concentration of proteins was determined for each sample by a Micro BCA Protein Assay kit in order to standardize measured radioactivity to the average content of 0.3 mg protein in a single well. […]

In series [5] the test system is KB tumor xenografts. The series is described as follows: PET imaging studies in KB tumor-bearing mice. Format: in vivo. On the procedure: PET experiments were performed with an eXplore VISTA PET/CT tomograph (GE). Tumor bearing mice were injected with 10-18 MBq of 3′-aza-2′-[^18F]fluorofolic acid (100-150 μl per injection) via lateral tail vein. […] Animals were anesthetized with isoflurane in an air/oxygen mixture. The PET scans were acquired from 120-150 min p.i. After acquisition, PET data were reconstructed in user-defined time frames. The fused datasets of PET and CT were analyzed with PMOD (version 3.2) software.
Dynamic PET scans of mice 1.5-90 min p.i. of 3′-aza-2′-[^18F]fluorofolic acid and at 60-150 min p.i. were performed. Static PET scans of [^18F]-2′3′-aza-folic acid were typically performed with a scan time from 120-150 min p.i. […] The uptake in other non-target organs was negligible, the only exceptions being the liver, kidneys and salivary glands.

[6] abbreviates: PET, pemetrexed 400 μg 60 min prior to the radiotracer.

For `Nc1nc2ncc(CNc3ccc(C(=O)N[C@@H](CCC(=O)O)C(=O)O)c([18F])n3)nc2c(=O)[nH]1` [3′-aza-2′-[^18F]fluorofolic acid], in series [1], the “Stability in human blood plasma” value is “completely stable”. Moreover, the “Stability in mouse liver microsomes” value in series [2] was “completely stable”. Also, the “Stability with glutathione and S9-fraction” value in series [3] was “completely stable”. For the same molecule, the Total cell uptake result in series [4] is listed as “about 78.17%”. In series [4] (stripping buffer pH 3), this molecule registered an Internalized fraction of 18.56%. The “Uptake in the tumor tissue and in the kidneys with coinjected folic acid” value in series [5] (PET 120-150 min p.i., excess folic acid 100 μg) is given as “reduced uptake”. Also, in series [5] (setting [6]), the “Accumulation in the liver after preinjection of pemetrexed” value was “very strong reduction”, the “Kidney uptake after preinjection of pemetrexed” value is on record as “reduced kidney uptake” and the “Tumor uptake after preinjection of pemetrexed” value is “high tumor uptake”. Further, the “Specific uptake in KB tumor xenografts” value in series [5] (quoted with static baseline PET scan 120-150 min p.i.) is 12.6±1.8 % ID/g. In series [5] (static baseline PET scan 120-150 min p.i.), the “Uptake in other non-target organs (except liver, kidneys and salivary glands)” value is on record as “negligible”.

Source of the values: patent US10357576B2, “18F-labelled folate/antifolate analogues” (MERCK & CIE, priority 2012, dated 2019).
